Data published in the kinase profiling compilation of Christmann-Franck et al. (2016).

Key:
[1] = test system: ABL1 (human), P00519 [H396P]; assay: KINOMEscan competition binding; settings: compound 10.0 µM
ABL1 (human) = ABL1 (human) (UniProt P00519); assay: KINOMEscan competition binding; settings: compound 10.0 µM
[2] = test system: ABL1 (human), P00519 [F317L]; assay: KINOMEscan competition binding; settings: compound 10.0 µM
[3] = test system: ABL1 (human), P00519 [F317I]; assay: KINOMEscan competition binding; settings: compound 10.0 µM
NUAK1 (human) = NUAK1 (human) (UniProt O60285)
HIPK3 (human) = HIPK3 (human) (UniProt Q9H422)
[4] = test system: AKT2 (human), P31751 [S474D]
PIK3CA (human) = PIK3CA (human) (UniProt P42336); assay: KINOMEscan competition binding; settings: compound 10.0 µM
PIK3CG (human) = PIK3CG (human) (UniProt P48736); assay: KINOMEscan competition binding; settings: compound 10.0 µM
[5] = test system: EGFR (human), P00533 [L861Q]; assay: KINOMEscan competition binding; settings: compound 10.0 µM
[6] = test system: EGFR (human), P00533 [G719S]; assay: KINOMEscan competition binding; settings: compound 10.0 µM
MARK2 (human) = MARK2 (human) (UniProt Q7KZI7); assay: KINOMEscan competition binding; settings: compound 10.0 µM
[7] = test system: EGFR (human), P00533 [P753S; 747-752 del]; assay: KINOMEscan competition binding; settings: compound 10.0 µM
[8] = test system: EGFR (human), P00533 [746-750 del]; assay: KINOMEscan competition binding; settings: compound 10.0 µM
[9] = test system: EGFR (human), P00533 [G719C]; assay: KINOMEscan competition binding; settings: compound 10.0 µM
[10] = test system: PIK3CA (human), P42336 [H1047Y]; assay: KINOMEscan competition binding; settings: compound 10.0 µM
[11] = test system: ABL1 (human), P00519 [Y253F]; assay: KINOMEscan competition binding; settings: compound 10.0 µM
[12] = test system: KIT (human), P10721 [V559D/V654A]; assay: KINOMEscan competition binding; settings: compound 10.0 µM
[13] = test system: ABL1 (human), P00519 [E255K]; assay: KINOMEscan competition binding; settings: compound 10.0 µM
MTOR (human) = MTOR (human) (UniProt P42345)
MYLK3 (human) = MYLK3 (human) (UniProt Q32MK0)

Sequence of NUAK1 (human) (O60285 whole entry, looked up): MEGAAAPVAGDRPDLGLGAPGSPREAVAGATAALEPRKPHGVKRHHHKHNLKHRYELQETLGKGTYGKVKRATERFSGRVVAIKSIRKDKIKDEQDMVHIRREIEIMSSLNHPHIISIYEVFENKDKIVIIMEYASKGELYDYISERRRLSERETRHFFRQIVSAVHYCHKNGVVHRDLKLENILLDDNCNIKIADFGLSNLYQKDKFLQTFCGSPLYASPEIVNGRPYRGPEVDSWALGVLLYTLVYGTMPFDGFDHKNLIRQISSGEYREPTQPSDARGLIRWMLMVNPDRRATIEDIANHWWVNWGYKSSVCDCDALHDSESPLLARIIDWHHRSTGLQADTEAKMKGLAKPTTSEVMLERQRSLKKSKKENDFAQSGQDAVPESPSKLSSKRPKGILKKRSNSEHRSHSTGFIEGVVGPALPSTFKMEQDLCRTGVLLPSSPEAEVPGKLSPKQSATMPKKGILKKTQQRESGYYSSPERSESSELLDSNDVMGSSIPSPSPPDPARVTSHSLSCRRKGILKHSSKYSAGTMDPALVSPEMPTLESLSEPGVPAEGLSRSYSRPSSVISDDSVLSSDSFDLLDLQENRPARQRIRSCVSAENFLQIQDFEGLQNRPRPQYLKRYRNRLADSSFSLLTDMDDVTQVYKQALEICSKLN
Sequence of HIPK3 (human) (Q9H422 whole entry, looked up): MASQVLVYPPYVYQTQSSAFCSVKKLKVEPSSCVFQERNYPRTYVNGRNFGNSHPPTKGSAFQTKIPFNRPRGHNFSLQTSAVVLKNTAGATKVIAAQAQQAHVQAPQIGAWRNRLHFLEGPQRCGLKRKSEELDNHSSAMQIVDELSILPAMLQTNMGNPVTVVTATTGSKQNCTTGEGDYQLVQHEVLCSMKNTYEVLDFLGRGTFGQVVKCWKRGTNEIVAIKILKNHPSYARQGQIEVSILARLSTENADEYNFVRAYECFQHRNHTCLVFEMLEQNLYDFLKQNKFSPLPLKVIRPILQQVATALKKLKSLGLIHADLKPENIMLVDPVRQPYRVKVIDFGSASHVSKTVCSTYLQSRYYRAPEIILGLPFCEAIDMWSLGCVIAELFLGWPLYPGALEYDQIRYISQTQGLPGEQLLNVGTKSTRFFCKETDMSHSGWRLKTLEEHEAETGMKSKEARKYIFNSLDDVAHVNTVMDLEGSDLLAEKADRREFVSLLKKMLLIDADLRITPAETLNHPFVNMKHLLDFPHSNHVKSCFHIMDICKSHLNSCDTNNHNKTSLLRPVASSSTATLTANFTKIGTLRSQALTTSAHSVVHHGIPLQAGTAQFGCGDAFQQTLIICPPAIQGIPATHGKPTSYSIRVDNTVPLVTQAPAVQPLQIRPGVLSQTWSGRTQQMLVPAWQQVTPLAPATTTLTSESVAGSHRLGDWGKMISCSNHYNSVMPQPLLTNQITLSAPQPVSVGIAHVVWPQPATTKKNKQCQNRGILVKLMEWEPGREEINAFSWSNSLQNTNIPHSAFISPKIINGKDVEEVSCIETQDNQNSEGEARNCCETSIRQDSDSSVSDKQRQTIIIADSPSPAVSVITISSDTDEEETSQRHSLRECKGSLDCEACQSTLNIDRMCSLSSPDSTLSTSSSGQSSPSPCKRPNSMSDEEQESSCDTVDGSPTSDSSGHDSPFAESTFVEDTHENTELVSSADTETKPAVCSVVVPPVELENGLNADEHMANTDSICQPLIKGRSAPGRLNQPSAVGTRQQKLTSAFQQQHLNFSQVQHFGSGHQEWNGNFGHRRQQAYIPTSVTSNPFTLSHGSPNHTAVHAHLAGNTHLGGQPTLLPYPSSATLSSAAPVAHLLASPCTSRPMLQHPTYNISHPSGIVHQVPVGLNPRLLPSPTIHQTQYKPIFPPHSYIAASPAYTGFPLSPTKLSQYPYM
Sequence of AKT2 (human), P31751 [S474D] (P31751 whole entry S474D, looked up): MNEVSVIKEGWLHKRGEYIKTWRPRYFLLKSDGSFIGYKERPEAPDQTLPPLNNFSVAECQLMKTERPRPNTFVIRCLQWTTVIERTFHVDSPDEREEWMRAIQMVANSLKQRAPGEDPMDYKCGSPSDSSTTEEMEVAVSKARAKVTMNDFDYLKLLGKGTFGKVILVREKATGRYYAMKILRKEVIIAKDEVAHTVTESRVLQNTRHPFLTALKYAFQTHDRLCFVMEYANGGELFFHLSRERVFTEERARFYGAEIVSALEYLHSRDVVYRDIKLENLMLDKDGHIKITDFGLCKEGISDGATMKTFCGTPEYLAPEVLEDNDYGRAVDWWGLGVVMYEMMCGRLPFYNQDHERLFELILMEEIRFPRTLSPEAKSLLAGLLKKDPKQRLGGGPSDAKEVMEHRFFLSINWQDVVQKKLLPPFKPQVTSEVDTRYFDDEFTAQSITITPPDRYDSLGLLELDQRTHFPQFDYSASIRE
Sequence of PIK3CA (human), P42336 [H1047Y] (P42336 whole entry H1047Y, looked up): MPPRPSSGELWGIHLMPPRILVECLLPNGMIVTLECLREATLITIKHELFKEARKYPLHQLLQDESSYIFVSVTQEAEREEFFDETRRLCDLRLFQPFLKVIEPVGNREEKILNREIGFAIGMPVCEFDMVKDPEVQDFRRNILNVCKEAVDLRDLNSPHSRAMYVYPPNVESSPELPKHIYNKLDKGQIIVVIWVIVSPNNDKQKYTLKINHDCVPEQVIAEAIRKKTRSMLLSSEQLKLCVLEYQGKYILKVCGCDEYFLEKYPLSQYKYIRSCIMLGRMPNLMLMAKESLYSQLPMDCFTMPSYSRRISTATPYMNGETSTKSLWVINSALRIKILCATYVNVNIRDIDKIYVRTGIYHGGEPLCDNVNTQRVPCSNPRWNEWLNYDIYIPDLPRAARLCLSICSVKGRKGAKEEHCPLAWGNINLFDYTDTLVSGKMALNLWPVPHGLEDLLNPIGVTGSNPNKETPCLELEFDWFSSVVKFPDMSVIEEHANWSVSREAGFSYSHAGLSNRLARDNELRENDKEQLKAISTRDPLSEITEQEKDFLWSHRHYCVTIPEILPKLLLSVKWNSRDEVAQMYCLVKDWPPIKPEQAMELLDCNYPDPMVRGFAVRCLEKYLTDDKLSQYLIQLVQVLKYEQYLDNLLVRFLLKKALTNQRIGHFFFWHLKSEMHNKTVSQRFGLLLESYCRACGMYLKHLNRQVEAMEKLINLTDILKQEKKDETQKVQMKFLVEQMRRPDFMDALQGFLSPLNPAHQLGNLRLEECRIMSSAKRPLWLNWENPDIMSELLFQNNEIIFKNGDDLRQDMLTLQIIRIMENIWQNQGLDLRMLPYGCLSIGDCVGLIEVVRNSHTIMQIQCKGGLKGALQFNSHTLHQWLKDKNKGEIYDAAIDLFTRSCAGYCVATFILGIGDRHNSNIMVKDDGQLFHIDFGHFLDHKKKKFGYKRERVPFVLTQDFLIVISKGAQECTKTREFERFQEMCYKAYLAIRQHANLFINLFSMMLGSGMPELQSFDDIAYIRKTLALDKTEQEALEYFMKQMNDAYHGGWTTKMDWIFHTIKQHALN
Sequence of KIT (human), P10721 [V559D/V654A] (P10721 whole entry V559D/V654A, looked up): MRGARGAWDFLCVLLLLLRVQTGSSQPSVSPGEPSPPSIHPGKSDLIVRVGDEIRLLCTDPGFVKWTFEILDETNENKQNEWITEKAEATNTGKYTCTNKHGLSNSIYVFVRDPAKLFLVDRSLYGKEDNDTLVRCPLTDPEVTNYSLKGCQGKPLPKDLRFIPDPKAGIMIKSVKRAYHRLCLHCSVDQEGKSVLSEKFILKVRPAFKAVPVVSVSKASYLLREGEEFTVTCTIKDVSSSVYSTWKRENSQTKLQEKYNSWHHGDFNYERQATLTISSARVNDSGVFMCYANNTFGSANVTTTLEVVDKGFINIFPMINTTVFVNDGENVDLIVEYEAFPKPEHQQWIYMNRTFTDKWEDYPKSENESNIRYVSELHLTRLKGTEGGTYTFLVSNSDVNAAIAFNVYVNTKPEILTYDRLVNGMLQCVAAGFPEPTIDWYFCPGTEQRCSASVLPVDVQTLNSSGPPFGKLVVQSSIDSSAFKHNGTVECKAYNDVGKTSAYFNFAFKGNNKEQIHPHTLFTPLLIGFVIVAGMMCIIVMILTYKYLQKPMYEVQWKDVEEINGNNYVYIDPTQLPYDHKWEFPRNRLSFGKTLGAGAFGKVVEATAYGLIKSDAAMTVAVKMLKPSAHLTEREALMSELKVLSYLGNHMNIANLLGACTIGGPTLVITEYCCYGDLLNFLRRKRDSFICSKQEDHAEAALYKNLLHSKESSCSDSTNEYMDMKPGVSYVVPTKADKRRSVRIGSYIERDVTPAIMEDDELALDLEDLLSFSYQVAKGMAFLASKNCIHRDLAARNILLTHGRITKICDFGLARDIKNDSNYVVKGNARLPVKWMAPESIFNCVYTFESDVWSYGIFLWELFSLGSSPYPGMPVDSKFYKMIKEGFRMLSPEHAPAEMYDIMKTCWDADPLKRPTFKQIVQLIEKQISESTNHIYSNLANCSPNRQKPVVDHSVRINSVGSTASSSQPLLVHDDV
Sequence of PIK3CA (human) (P42336 whole entry, looked up): as the sequence (P42336 whole entry H1047Y, looked up) above, with Y1047H counted along it

| Structure (SMILES) | per cent of control (NUAK1 (human); compound 1.0 µM) [%] | per cent of control (NUAK1 (human); compound 10.0 µM) [%] | per cent of control (HIPK3 (human); compound 1.0 µM) [%] | per cent of control (HIPK3 (human); compound 10.0 µM) [%] | per cent of control ([4]; compound 1.0 µM) [%] | per cent of control ([4]; compound 10.0 µM) [%] | kinase still bound, per cent of control (PIK3CA (human)) [%] | kinase still bound, per cent of control (PIK3CG (human)) [%] | kinase still bound, per cent of control [5] [%] | kinase still bound, per cent of control [6] [%] | kinase still bound, per cent of control (MARK2 (human)) [%] | kinase still bound, per cent of control [7] [%] | kinase still bound, per cent of control [8] [%] | kinase still bound, per cent of control [9] [%] | kinase still bound, per cent of control [10] [%] | kinase still bound, per cent of control [11] [%] | kinase still bound, per cent of control [12] [%] | kinase still bound, per cent of control [13] [%] | further results |
| --- | --- | --- | --- | --- | --- | --- | --- | --- | --- | --- | --- | --- | --- | --- | --- | --- | --- | --- | --- |
| CCC(=O)N1CCN(c2ccc(-n3c(=O)ccc4cnc5ccc(-c6cnc7ccccc7c6)cc5c43)cc2C(F)(F)F)CC1 | 101 | 79 | 107 | 91 | 95 | 84 | – | – | – | – | – | – | – | – | – | – | – | – | kinase still bound, per cent of control [1]: 68%; kinase still bound, per cent of control (ABL1 (human)): 60%; kinase still bound, per cent of control [2]: 100%; kinase still bound, per cent of control [3]: 100% |
| COC(=O)Nc1ccc(-c2nc(N3CCOCC3)c3cnn(C4CCN(C(=O)OC)CC4)c3n2)cc1 | 94 | 82 | 112 | 85 | 102 | 89 | 5.4 | 78 | 100 | 95 | 100 | 86 | 100 | 100 | 7.8 | 90 | 100 | 100 | IC50 (MTOR (human)): 15.8 nM |
| COc1ccc(-c2ccc3c(N4CCOCC4)nc(N4C[C@@H](C)O[C@@H](C)C4)nc3n2)cc1CO | – | – | – | – | – | – | 2.5 | 23 | 83 | 100 | 94 | 100 | 100 | 100 | 3.2 | 100 | 100 | 100 | per cent of control (MYLK3 (human); compound 1.0 µM): 82%; per cent of control (MYLK3 (human); compound 10.0 µM): 104% |
